# Experimental data from PMC12389038 (Pharmaceutics, 2025).
# Marks after values point to notes of the source that are not given here.
# Experiments:
# [1] = Particle size determination (SEM image analysis / Nano Particle Analyzer); format: physicochemical
# Experimental: The particle size of the NP and inclusion complexes was determined by imaging using scanning electron microscopy (Leitz AMR 1600 T [Amray, Bedford, MA, USA]), with an acceleration potential of 20 kV. Samples were sputter-coated with a gold layer to make them conductive. Then, to determine the particle size, scanning electron microscopy images were analyzed using the ImageJ 1x software, a Java-based graphic design program dedicated to image analysis, to estimate size. The particle size of nano-formulations was determined by using a Nano Particle Analyzer Horiba SZ-100 (Kyoto, Japan). Samples were diluted (1:30) in filtered distilled water before measuring.
# [2] = system: Trichinella spiralis encysted muscle larvae; test: In vivo therapeutic efficacy in the parenteral stage of T. spiralis infection; design: species or system CBi/L and CBi+ mice; conditions: for Dead larvae percentage: 15 mg MBZ/kg/day oral days 27, 28, 29 p-i, methylene blue, median (range)
# Experimental: Since CBi/L and CBi+ mice show significant body weight differences, as already stated, adult animals of both sexes were infected orally with an equivalent dose of 2 T. spiralis L1 larvae per g of the host’s body weight. Each animal was weighed before infection, 24–48 h before treatment, and before sacrifice. During the infection course, the general health of each mouse (overall physical condition and behavior) was monitored three times a week.
# Six mice per line and sex were randomly assigned to the non-treated control (C) or treated groups (MBZ, NP, or Comp). Seven days after the last dose, mice were sacrificed to quantify encysted muscle larvae in the tongue. The tongue was excised, weighed, and digested overnight at 37 °C in a pepsin–HCl solution. Digestion was interrupted by adding saline, and the larvae were rinsed several times with saline to remove debris. After low-speed centrifugation (250–300 g, 5 min), the supernatant was carefully removed, and the pellet containing larvae was resuspended in 2 mL of saline. Larvae were counted under an optical microscope at 40× magnification using an acrylic plate. Each formulation’s anthelmintic efficacy was assessed by its effect on the larval muscle load (relative larval load: rLL, number of L1 larvae per g fresh tissue). Also, the effect of the formulations on the encysted L1 larvae viability (dead larvae percentage: proportion of dead muscle larvae/total muscle larvae recovered from each animal) was analyzed using the methylene blue supravital staining technique, as already described.
# in vivo = test: in vivo; design: species or system CBi/L and CBi+ mice; conditions: mouse, po, 15 mg/kg
# Experimental: Separately, 2.6 g of gelatin powder was dissolved in 10 mL of hot water (60 °C), and 100 μL of this solution was added to each tube before solidification. The mixture was then sonicated in a 60 °C water bath, and 40 mg of powdered commercial chow was added to enhance palatability and ensure complete ingestion. This procedure was developed in our lab and was published in Codina et al..
# Following the procedures described by Codina et al., three to four animals per formulation were anesthetized after the drug administration with an intraperitoneal injection of ketamine/xylazine 10:1, 5 min before blood collection. Whole blood (approximately 1.5 mL) samples were taken by cardiac puncture at 0.3, 0.6, 1, 1.2, 2, 2.5, 3, 4, 5, 7, and 24 h post-treatment. Blood was collected into heparinized vials and centrifuged at 9000 rpm for 15 min to obtain plasma, which was transferred to a plastic tube and stored at −20 °C until HPLC analysis.
# Briefly, each plasma sample (200 μL) was deproteinized by adding methanol (1 mL), frozen for 30 min at −20 °C, and centrifuged at 15,000 rpm at 4 °C for 12 min. Then, the supernatant was evaporated under vacuum, and the dried samples were stored frozen until analyzed. Samples were reconstituted in 100 μL of the mobile phase and filtered through 0.2 μm polyvinylidene fluoride (PVDF) syringe filters (Agilent, Santa Clara, CA, USA). The mobile phase consisted of 0.05 M of monobasic potassium phosphate buffer and methanol (40:60, v/v). […] Briefly, each plasma sample (200 μL) was treated to eliminate proteins by adding methanol (1 mL), frozen for 30 min at −20 °C, and centrifuged at 15,000 rpm at 4 °C for 12 min. Then, the supernatant was evaporated under a vacuum, and the dried samples were frozen until analyzed. Samples of 25 μL were injected, and the analytes were eluted (flow 1.2 mL/min) from a column Zorbax Eclipse C-18 (150 × 4.6 mm; 5 μm). The absorbance was measured at a wavelength of 247 nm. The analyte retention time was 3.8 ± 0.2 min.
# According to regulatory guidelines, the Lower Limit of Quantification (LLOQ) is defined as the lowest concentration of an analyte in a biological matrix that can be quantitatively determined with acceptable precision and accuracy. […] The LLOQ was determined based on the standard deviation of the response at the lowest concentration point, measured in triplicate, and was evaluated for both precision (% CV) and accuracy criteria. […] Consequently, only data up to 7 h were considered for pharmacokinetic analysis.
# AUCs were calculated using the trapezoidal rule. Pharmacokinetic parameters were expressed as mean ± SEM. In this section, we report data as mean ± SEM to provide a measure of the central tendency along with the precision of the estimated mean. The standard error of the mean (SEM) is particularly useful for highlighting the reliability of the sample mean as an estimate of the true population mean, which is relevant when evaluating pharmacokinetic (PK) parameters under controlled conditions.
# T. spiralis female worms = test: In vitro parasitic assay on T. spiralis female worms; design: species or system Trichinella spiralis
# Experimental: CBi mice were orally infected with 10 L1 T. spiralis larvae per gram of body weight and sacrificed on day 6 post-infection (intestinal phase) as described previously. After euthanasia, the small intestine was excised, segmented into equal lengths, and placed in Petri dishes containing 8–12 mL of incubation medium (0.85% NaCl with 250 μg/mL gentamicin). Each segment was opened longitudinally, gently agitated in the medium, and incubated for 4 h at 37 °C in 5% CO2. Following incubation, intestinal pieces were rinsed with medium and discarded. The medium containing released parasites was collected, centrifuged at a low speed, and the pellet was resuspended in 2–3 mL of RPMI 1640 supplemented with 250 μg/mL of gentamicin and 10% fetal bovine serum. Female worms were then isolated under sterile conditions for further assays.
# They were stirred at room temperature for 24 h and then filtered through sterile ethyl cellulose 0.2 μm pore filters (Minisart®, Sartorius Stedim Biotech, Göttingen, Germany).
# The entire procedure was conducted under sterile conditions as described by Priotti et al.. Female T. spiralis worms obtained as above were incubated overnight in RPMI 1640 supplemented with 250 μg/mL of gentamicin and 10% fetal bovine serum at 37 °C in 5% CO2. […] The MBZ solution served as the positive control, and the culture medium with the solvent served as the negative control. Worms were incubated at 37 °C in a humidified 5% CO2 atmosphere for 30 h and observed under an inverted microscope at 2, 4, 7, 24, and 30 h. Viability was assessed at each time point by motility and morphology to classify worms as live or dead. The number and motility of newborn larvae were also recorded. Median worm survival was analyzed using survival curves. Experiments were performed in duplicate, with data corrected against the negative control.
# Survival curves were calculated using Kaplan and Meier’s product limit method (GraphPad Prism® 9.5; GraphPad Software, Inc., San Diego, CA, USA). The significance of the difference among survival curves was determined with the log-rank test.
# [3] = background statement, no reference given; cited from earlier work
# [4] = system: Trichinella spiralis encysted muscle larvae; test: Increasing doses of pure MBZ, therapeutic efficacy in T. spiralis-infected CBi+ mice; format: in vivo; conditions: CBi+ males and females, 30 or 45 mg of MBZ/kg, vs control mice or 15 mg of MBZ/kg
# Experimental: As in the experiments described in Section 2.10.2, the pure drug was administered in the parenteral stage of infection on days 27, 28, and 29 p-i. Seven days after the last dose, mice were sacrificed, and the number and viability of the tongue’s encysted muscle larvae were determined to evaluate anthelmintic efficacy.
structure (smiles),measurement,setting,value
"COC(=O)Nc1nc2ccc(C(=O)c3ccccc3)cc2[nH]1 [MBZ, Mebendazole]",Particle Size (mean diameter),[1],10.4 ± 6.9 µm
same,Dead larvae percentage,[2]; CBi+ female,5 (5–11) ^a %
same,Dead larvae percentage,[2]; CBi+ male,11 (7–75) ^a %
same,Dead larvae percentage,[2]; CBi/L female,15 (6–25) ^b %
same,Dead larvae percentage,[2]; CBi/L male,27 (7–75) ^b %
same,Number of muscle larvae recovered compared to control animals,"[2]; pure MBZ 15 mg/kg on days 27, 28, and 29 p-i",did not reduce the number of muscle larvae recovered
same,AUC(0-t),"in vivo; female, CBi+",600 ± 80 ng·h/mL
same,Cmax,"in vivo; female, CBi+",200 ± 20 ng/mL
same,Tmax,"in vivo; female, CBi+",39.6 min
same,AUC(0-t),"in vivo; female, CBi/L",3900 ± 630 ng·h/mL
same,Cmax,"in vivo; female, CBi/L",1300 ± 260 ng/mL
same,Tmax,"in vivo; female, CBi/L",39.6 min
same,AUC(0-t),"in vivo; male, CBi+",400 ± 200 ng·h/mL
same,Cmax,"in vivo; male, CBi+",300 ± 110 ng/mL
same,Tmax,"in vivo; male, CBi+",39.6 min
same,AUC(0-t),"in vivo; male, CBi/L",2700 ± 820 ng·h/mL
same,Cmax,"in vivo; male, CBi/L",1300 ± 310 ng/mL
same,Tmax,"in vivo; male, CBi/L",39.6 min
same,Survival Proportion After 30 h,"T. spiralis female worms; T. spiralis females, 30 h incubation in RPMI 1640",79.3%
same,Median Survival,"T. spiralis female worms; T. spiralis females, 30 h incubation in RPMI 1640, Kaplan–Meier",Undefined
same,Effect on mobility of T. spiralis newborn larvae,"T. spiralis female worms; larvae released by females exposed to the antiparasitic solutions, 30 h",Neither MBZ nor the formulations affected the mobility
same,Oral bioavailability,[3],approximately 20%
same,Decrease in muscle rLL,[4],40%
